Assay results reported in PubChem BioAssay (NCI).
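Test compounds were applied to cells in 96-well plates for 48 hours at 5 doses. TGI marks complete inhibition of growth.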

Columns and labels:
Assay in all cases: DTP human tumour cell line panel, 48 h
[1] = system: 786-0 renal
[2] = system: A549 NSCLC
[3] = system: ACHN renal
[4] = system: BT-549 breast
[5] = system: CAKI-1 renal
[6] = system: CCRF-CEM leukemia
[7] = system: COLO 205 colon
[8] = system: DU-145 prostate
[9] = system: EKVX NSCLC
[10] = system: HCC-2998 colon
[11] = system: HCT-116 colon
[12] = system: HCT-15 colon
[13] = system: HL-60(TB) leukemia
[14] = system: HOP-62 NSCLC
[15] = system: HOP-92 NSCLC
[16] = system: HS 578T breast
[17] = system: HT29 colon
[18] = system: IGROV1 ovarian
[19] = system: K-562 leukemia
[20] = system: KM12 colon
[21] = system: LOX IMVI melanoma
[22] = system: M14 melanoma
[23] = system: MALME-3M melanoma
[24] = system: MCF7 breast
[25] = system: MDA-MB-231 breast
[26] = system: MDA-MB-435
[27] = system: MDA-N
[28] = system: MOLT-4 leukemia
[29] = system: NCI-H226 lung
[30] = system: NCI-H23 lung
[31] = system: NCI-H460 lung
[32] = system: NCI-H522 lung
[33] = system: NCI/ADR-RES ovarian
[34] = system: OVCAR-3 ovarian
[35] = system: OVCAR-4 ovarian
[36] = system: OVCAR-5 ovarian
[37] = system: OVCAR-8 ovarian
[38] = system: PC-3 prostate
[39] = system: RPMI-8226 leukemia
[40] = system: RXF 393 renal
[41] = system: SF-268 CNS
[42] = system: SF-295 CNS
[43] = system: SK-MEL-2 melanoma
[44] = system: SK-MEL-28 melanoma
[45] = system: SK-MEL-5 melanoma
[46] = system: SK-OV-3 ovarian
[47] = system: SN12C renal
[48] = system: SNB-19 CNS
[49] = system: SR leukemia
[50] = system: T-47D breast
[51] = system: TK-10 renal
[52] = system: U251 CNS
[53] = system: UACC-257 melanoma
[54] = system: UACC-62 melanoma
[55] = system: UO-31 renal
[56] = system: SF-539 CNS
[57] = system: SNB-75 CNS
[58] = system: SW-620 colon

Measured: TGI

O=C1CC(C(=O)O)Cc2c(Br)ccc(O)c21 (configuration not stated)
not listed: [56] | [57] | [58]
> 100 µM: all other assays above

CC1(c2nc3ccccc3[nH]2)CCC(C#N)C(C)(C)O1 (configuration not stated)
not listed: [31]
> 100 µM: all other assays above
